This passage reports melting point and CC50 results from article PMC6749389, “Synthesis and In Vitro Anti-Toxoplasma gondii Activity of Novel Thiazolidin-4-one Derivatives” (Molecules, 2019).

As usually defined, the melting point is the temperature, or range, at which the solid turns liquid. As usually defined, the CC50 is the concentration at which the toxic effect on the cells reaches its halfway point.

Structures are written as SMILES.

Data set [1] can be described thus: Cytotoxic assay (MTT, ISO 10993-5:2009(E)), 24 h treatment. The data set is classed as cell-based. The note with it: L929 mouse fibroblast cells, L929 mouse fibroblasts, values above highest tested concentration extrapolated. On the procedure: The L929 mouse fibroblast (ATTC® CCL-1™, Manassas, VA, USA) were culturing according to the ATCC product sheet. […] The cell viability assay were performed precisely according to international standards (ISO 10993-5:2009(E)), using the tetrazolium salt [3-(4,5-dimethylthiazol-2-yl)-2,5-diphenyltetrazolium bromide] (MTT, Sigma-Aldrich) and mouse fibroblasts L929 cells. Cells (1 × 10^4 per well) were treated 24 h with compounds or drug in different concentration range. The optical density at 570 nm on the ELISA reader (Multiskan EX, Labsystems, Vienna, VA, USA), was read. The results were expressed as a percentage of viability compared to untreated cells. […] The CC30/CC50 represents the concentration of tested compounds or drugs that was required for 30% or 50% cells proliferation inhibition in vitro. According to the previously mentioned ISO 10993-5:2009(E) norm, the CC30 value is recognized as non-cytotoxic concentration for the cell line. All experiments were performed in triplicate.

Take `CCOc1cc(C=NN=C2SCC(=O)N2c2ccccc2Cl)ccc1O` [Compound 51, 3-(2-Chlorophenyl)-2-{[(3-ethoxy-4-hydroxyphenyl)methylidene]hydrazinylidene}-1,3-thiazolidin-4-one]: the melting point lay in the range of 196 to 198 °C. `O=C(O)CC1SC(=NN=Cc2cccc(O)c2)N(c2ccccc2)C1=O` (stereo not shown) [Compound 75, [2-{[(3-Hydroxyphenyl)methylidene]hydrazinylidene}-4-oxo-3-phenyl-1,3-thiazolidin-5-yl]acetic acid] registered a melting point of 214 to 216 °C. For the same molecule, the CC50 at 24 h in data set [1] is at least 1000 µM. `O=C(O)CC1SC(=NN=Cc2ccc(O)cc2)N(c2ccccc2)C1=O` (stereo not shown) [Compound 76, [2-{[(4-Hydroxyphenyl)methylidene]hydrazinylidene}-4-oxo-3-phenyl-1,3-thiazolidin-5-yl]acetic acid] showed a melting point of 236 to 238 °C. Besides, the half-maximal cytotoxic concentration (CC50) at 24 h in data set [1] is at least 1000 µM.

In the case of `O=C(O)CC1SC(=NN=Cc2ccc(O)c(Br)c2)N(c2ccccc2)C1=O` (stereo not shown) [Compound 80, [2-{[(3-Bromo-4-hydroxyphenyl)methylidene]hydrazinylidene}-4-oxo-3-phenyl-1,3-thiazolidin-5-yl]acetic acid], the melting point fell in the range of 252 to 254 °C. For the same molecule, the CC50 at 24 h in data set [1] is at least 1000 µM. In turn, `O=C1CSC(=NN=Cc2cccc(O)c2)N1c1cccc(Cl)c1` [Compound 53, 3-(3-Chlorophenyl)-2-{[(3-hydroxyphenyl)methylidene]hydrazinylidene}-1,3-thiazolidin-4-one] came in with a melting point of 198 to 200 °C. Besides, in data set [1], the 50% cytotoxic concentration (CC50) at 24 h was 113 µM.

The molecule `COc1cc(C=NN=C2SCC(=O)N2c2cccc(Cl)c2)ccc1O` [Compound 55, 3-(3-Chlorophenyl)-2-{[(4-hydroxy-3-methoxyphenyl)methylidene]hydrazinylidene}-1,3-thiazolidin-4-one] had a melting point of 210 to 212 °C. Take `O=C1CSC(=NN=Cc2cccc(O)c2)N1c1ccc(F)cc1` [Compound 68, 3-(4-Fluorophenyl)-2-{[(3-hydroxyphenyl)methylidene]hydrazinylidene}-1,3-thiazolidin-4-one]: the melting point was in the range of 204 to 206 °C. Moreover, in data set [1], the cytotoxic concentration (CC50) at 24 h was 180 µM. For the molecule `O=C1CSC(=NN=Cc2ccc(O)c(Cl)c2)N1c1ccc(Cl)cc1` [Compound 62, 2-{[(3-Chloro-4-hydroxyphenyl)methylidene]hydrazinylidene}-3-(4-chlorophenyl)-1,3-thiazolidin-4-one], the melting point is 231 to 233 °C.

As to `O=C(O)CC1SC(=NN=Cc2ccc(O)c(Cl)c2)N(c2ccccc2)C1=O` (stereo not shown) [Compound 79, [2-{[(3-Chloro-4-hydroxyphenyl)methylidene]hydrazinylidene}-4-oxo-3-phenyl-1,3-thiazolidin-5-yl]acetic acid], the melting point was 244 to 246 °C. Also, the CC50 at 24 h in data set [1] is at least 1000 µM. `COc1cc(C=NN=C2SCC(=O)N2c2ccc(Cl)cc2)ccc1O` [Compound 60, 3-(4-Chlorophenyl)-2-{[(4-hydroxy-3-methoxyphenyl)methylidene]hydrazinylidene}-1,3-thiazolidin-4-one]: the melting point is 226 to 228 °C. In turn, `COc1cc(C=NN=C2SCC(=O)N2c2ccc(F)cc2)ccc1O` [Compound 70, 3-(4-Fluorophenyl)-2-{[(4-hydroxy-3-methoxyphenyl)methylidene]hydrazinylidene}-1,3-thiazolidin-4-one] displayed a melting point of 236 to 238 °C.

On to `O=C1CSC(=NN=Cc2ccc(O)c(Cl)c2)N1c1ccc(F)cc1` [Compound 72, 2-{[(3-Chloro-4-hydroxyphenyl)methylidene]hydrazinylidene}-3-(4-fluorophenyl)-1,3-thiazolidin-4-one], for which the melting point lay within 222 to 224 °C. Molecule `O=C1CSC(=NN=Cc2cccc(O)c2)N1c1ccccc1` [Compound 42, 2-{[(3-Hydroxyphenyl)methylidene]hydrazinylidene}-3-phenyl-1,3-thiazolidin-4-one] displayed a melting point of 235 to 236 °C. In addition, the CC50 at 24 h in data set [1] was 234 µM. `O=C1CSC(=NN=Cc2cccc(O)c2)N1c1ccccc1Cl` [Compound 49, 3-(2-Chlorophenyl)-2-{[(3-hydroxyphenyl)methylidene]hydrazinylidene}-1,3-thiazolidin-4-one]: the melting point was 192 to 194 °C. Also, the CC50 at 24 h in data set [1] is 188 µM. Consider `COc1cc(C=NN=C2SC(CC(=O)O)C(=O)N2c2ccccc2)ccc1O` (stereo not shown) [Compound 77, [2-{[(4-Hydroxy-3-methoxyphenyl)methylidene]hydrazinylidene}-4-oxo-3-phenyl-1,3-thiazolidin-5-yl]acetic acid], for which the CC50 at 24 h in data set [1] was at least 1000 µM. Molecule `O=C1CSC(=NN=Cc2ccc(O)c(Br)c2)N1c1ccc(F)cc1` [Compound 73, 2-{[(3-Bromo-4-hydroxyphenyl)methylidene]hydrazinylidene}-3-(4-fluorophenyl)-1,3-thiazolidin-4-one] came in with a melting point of 224 to 226 °C. As for `O=C1CSC(=NN=Cc2ccc(O)c(Cl)c2)N1c1ccccc1` [Compound 46, 2-{[(3-Chloro-4-hydroxyphenyl)methylidene]hydrazinylidene}-3-phenyl-1,3-thiazolidin-4-one], the melting point fell in the range of 215 to 216 °C. In turn, `CCOc1cc(C=NN=C2SCC(=O)N2c2ccc(F)cc2)ccc1O` [Compound 71, 2-{[(3-Ethoxy-4-hydroxyphenyl)methylidene]hydrazinylidene}-3-(4-fluorophenyl)-1,3-thiazolidin-4-one] gave a melting point of 240 to 242 °C. Take `O=C1CSC(=NN=Cc2ccc(O)cc2)N1c1ccccc1` [Compound 43, 2-{[(4-Hydroxyphenyl)methylidene]hydrazinylidene}-3-phenyl-1,3-thiazolidin-4-one]: the CC50 at 24 h in data set [1] is 485 µM.

Turning to `CCOc1cc(C=NN=C2SC(CC(=O)O)C(=O)N2c2ccccc2)ccc1O` (stereo not shown) [Compound 78, [2-{[(3-Ethoxy-4-hydroxyphenyl)methylidene]hydrazinylidene}-4-oxo-3-phenyl-1,3-thiazolidin-5-yl]acetic acid], the melting point is 224 to 226 °C. Besides, the CC50 at 24 h in data set [1] was at least 1000 µM. Take `O=C1CSC(=NN=Cc2ccc(O)cc2)N1c1cccc(Cl)c1` [Compound 54, 3-(3-Chlorophenyl)-2-{[(4-hydroxyphenyl)methylidene]hydrazinylidene}-1,3-thiazolidin-4-one]: the melting point was 262 to 264 °C. In addition, in data set [1], the CC50 at 24 h was 289 µM. In the case of `O=C1CSC(=NN=Cc2ccccc2O)N1c1cccc(Cl)c1` [Compound 52, 3-(3-Chlorophenyl)-2-{[(2-hydroxyphenyl)methylidene]hydrazinylidene}-1,3-thiazolidin-4-one], the melting point lay in the range of 194 to 196 °C. The molecule `O=C1CSC(=NN=Cc2ccc(O)cc2)N1c1ccc(Br)cc1` [Compound 66, 3-(4-Bromophenyl)-2-{[(4-hydroxyphenyl)methylidene]hydrazinylidene}-1,3-thiazolidin-4-one] had a melting point of 288 to 290 °C. Further, in data set [1], the CC50 at 24 h is 247 µM. Molecule `O=C1CSC(=NN=Cc2ccccc2O)N1c1ccc(Cl)cc1` [Compound 57, 3-(4-Chlorophenyl)-2-{[(2-hydroxyphenyl)methylidene]hydrazinylidene}-1,3-thiazolidin-4-one] had a melting point of 238 to 240 °C. Same read-out and setting: the result for `O=C1CSC(=NN=Cc2ccccc2O)N1c1ccccc1Cl` [Compound 48, 3-(2-Chlorophenyl)-2-{[(2-hydroxyphenyl)methylidene]hydrazinylidene}-1,3-thiazolidin-4-one] reads 168 to 170 °C. The molecule `COc1cc(C=NN=C2SCC(=O)N2c2ccc(Cl)cc2Cl)ccc1O` [Compound 64, 3-(2,4-Dichlorophenyl)-2-{[(4-hydroxy-3-methoxyphenyl)methylidene]hydrazinylidene}-1,3-thiazolidin-4-one] gave a melting point of 140 to 142 °C. `O=C1CSC(=NN=Cc2ccc(O)c(Br)c2)N1c1ccccc1` [Compound 47, 2-{[(3-Bromo-4-hydroxyphenyl)methylidene]hydrazinylidene}-3-phenyl-1,3-thiazolidin-4-one] had a melting point of 216 to 218 °C. In the case of `O=C1CSC(=NN=Cc2ccc(O)cc2)N1c1ccc(F)cc1` [Compound 69, 3-(4-Fluorophenyl)-2-{[(4-hydroxyphenyl)methylidene]hydrazinylidene}-1,3-thiazolidin-4-one], the CC50 at 24 h in data set [1] was 386 µM. `O=C1CSC(=NN=Cc2ccc(O)c(Br)c2)N1c1ccc(Cl)cc1` [Compound 63, 2-{[(3-Bromo-4-hydroxyphenyl)methylidene]hydrazinylidene}-3-(4-chlorophenyl)-1,3-thiazolidin-4-one] gave a melting point of 235 to 236 °C. The molecule `CCOc1cc(C=NN=C2SCC(=O)N2c2ccc(Cl)cc2)ccc1O` [Compound 61, 3-(4-Chlorophenyl)-2-{[(3-ethoxy-4-hydroxyphenyl)methylidene]hydrazinylidene}-1,3-thiazolidin-4-one] yielded a melting point of 218 to 220 °C. For the molecule `CCOc1cc(C=NN=C2SCC(=O)N2c2cccc(Cl)c2)ccc1O` [Compound 56, 3-(3-Chlorophenyl)-2-{[(3-ethoxy-4-hydroxyphenyl)methylidene]hydrazinylidene}-1,3-thiazolidin-4-one], the melting point was in the range of 214 to 216 °C. On the same count and under the same terms, the result for `CCOc1cc(C=NN=C2SCC(=O)N2c2ccccc2)ccc1O` [Compound 45, 2-{[(3-Ethoxy-4-hydroxyphenyl)methylidene]hydrazinylidene}-3-phenyl-1,3-thiazolidin-4-one] reads 229 to 230 °C.
